The experiment deals with BDNF/NT-3 growth factors receptor (Homo sapiens, UniProt Q16620). As to the kind of experiment: Inhibition of human TrkB.

pIC50: −log10 of the molar value.

From ChEMBL document CHEMBL1139192, “Novel bis(indolyl)maleimide pyridinophanes that are potent, selective inhibitors of glycogen synthase kinase-3” (Bioorg Med Chem Lett, 2007) come the findings set out here.

Sequence of BDNF/NT-3 growth factors receptor (Q16620 whole entry): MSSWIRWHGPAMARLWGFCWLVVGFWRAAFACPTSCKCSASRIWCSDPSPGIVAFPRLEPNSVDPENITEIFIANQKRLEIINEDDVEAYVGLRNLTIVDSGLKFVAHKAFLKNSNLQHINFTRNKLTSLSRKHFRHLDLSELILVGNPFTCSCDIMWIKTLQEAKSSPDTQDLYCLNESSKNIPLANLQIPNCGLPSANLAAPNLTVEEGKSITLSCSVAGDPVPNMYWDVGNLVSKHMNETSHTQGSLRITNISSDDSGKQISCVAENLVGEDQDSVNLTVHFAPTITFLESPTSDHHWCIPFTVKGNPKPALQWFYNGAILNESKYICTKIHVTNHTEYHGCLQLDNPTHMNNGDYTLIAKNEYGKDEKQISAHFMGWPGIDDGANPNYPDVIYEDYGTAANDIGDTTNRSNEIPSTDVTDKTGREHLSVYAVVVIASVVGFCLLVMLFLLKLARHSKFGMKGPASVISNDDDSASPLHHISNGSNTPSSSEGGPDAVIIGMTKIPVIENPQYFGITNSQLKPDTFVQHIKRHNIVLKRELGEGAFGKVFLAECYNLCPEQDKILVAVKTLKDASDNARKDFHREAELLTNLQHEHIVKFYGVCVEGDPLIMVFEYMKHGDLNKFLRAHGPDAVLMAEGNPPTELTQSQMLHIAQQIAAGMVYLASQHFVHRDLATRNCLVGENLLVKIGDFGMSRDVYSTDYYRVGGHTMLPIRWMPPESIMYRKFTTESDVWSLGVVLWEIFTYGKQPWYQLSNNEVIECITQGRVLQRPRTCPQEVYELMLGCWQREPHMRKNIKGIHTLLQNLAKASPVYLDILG

One may read the pIC50 as −log10 of the IC50, conventionally taken in molar units. Read a high pIC50 as a low IC50. Compound `CN(C)c1nc2ccc1CCCn1cc(c3ccccc31)C1=C(C(=O)NC1=O)c1cn(c3ccccc13)CC2` had a pIC50 below 5.52.
